Results: US9302999B2, “Substituted triazoles as herbicides” (E. I. DU PONT DE NEMOURS AND COMPANY, priority 2012, dated 2016)

Tests used:
Assay type in all cases: in vivo
[1] = system: large crabgrass (Digitaria sanguinalis); assay: Test C pre-/postemergence: large crabgrass
How it was run: (§1)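 Preemergence on seeds in loam/sand, postemergence on 2–18 cm (1–4-leaf) plants in peat-based medium; compounds in non-phytotoxic solvent with surfactant. After 13–15 days in greenhouse, visual rating versus controls, 0 (no effect) to 100 (complete control).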

[2] = system: pigweed (Amaranthus retroflexus); assay: Test C pre-/postemergence: pigweed
How it was run: as §1

corn (Zea mays) = assay: Test A pre-/postemergence: corn; conditions: for Corn plant response rating: Postemergence; for Plant response rating, Corn: Preemergence
How it was run: (§2)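 Compounds, formulated with surfactant in non-phytotoxic solvent, were applied as a directed soil spray preemergence and as postemergence sprays to 2–10 cm, one- to two-leaf seedlings grown in loam soil blended with sand; visual injury, 0–100, assessed ~10 days post-treatment against untreated controls.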

[3] = system: nutsedge, yellow (yellow nutsedge, Cyperus esculentus); assay: Test C pre-/postemergence: nutsedge, yellow
How it was run: as §1

[4] = system: wheat (Triticum aestivum); assay: Test A pre-/postemergence: wheat; conditions: for Wheat plant response rating: visual rating on 0 to 100 scale (0 no effect, 100 complete control), approximately ten days
How it was run: as §2

[5] = system: morningglory (Ipomoea spp.); assay: Test A pre-/postemergence: morningglory; conditions: for Morningglory plant response rating: visual rating on 0 to 100 scale (0 no effect, 100 complete control), approximately ten days
How it was run: as §2

soybean (Glycine max) = assay: Test C pre-/postemergence: soybean
How it was run: as §1

[6] = system: ryegrass, Italian (Italian ryegrass, Lolium multiflorum); assay: Test C pre-/postemergence: ryegrass, Italian
How it was run: as §1

[7] = system: blackgrass (Alopecurus myosuroides); assay: Test C pre-/postemergence: blackgrass
How it was run: as §1

[8] = system: johnsongrass (Sorghum halepense); assay: Test C pre-/postemergence: johnsongrass
How it was run: as §1

[9] = system: barnyardgrass (Echinochloa crus-galli); assay: Test A pre-/postemergence: barnyardgrass; conditions: for Barnyardgrass plant response rating: Postemergence; for Plant response rating, Barnyardgrass: Preemergence
How it was run: as §2

[10] = Postemergence, 31 g ai/ha, scale 0 to 100 (0 no effect, 100 complete control)
[11] = Postemergence, 62 g ai/ha, scale 0 to 100 (0 no effect, 100 complete control)
[12] = Postemergence, 125 g ai/ha, scale 0 to 100, 0 no effect, 100 complete control
[13] = Postemergence, 250 g ai/ha, scale 0 to 100
[14] = 125 g ai/ha, 0 to 100 scale, 0 is no effect, 100 is complete control
[15] = 500 g ai/ha, visual rating on 0 to 100 scale (0 no effect, 100 complete control), approximately ten days
[16] = 125 g ai/ha, 0 to 100 scale where 0 is no effect and 100 is complete control
[17] = 500 g ai/ha, 0 to 100 scale (0 no effect, 100 complete control)
[18] = Postemergence, 125 g ai/ha, 0 to 100 scale, 0 is no effect, 100 is complete control
[19] = Preemergence, 125 g ai/ha, 0 to 100 scale where 0 is no effect and 100 is complete control
[20] = Preemergence, 500 g ai/ha, 0 to 100 scale (0 no effect, 100 complete control)
[21] = Preemergence, 31 g ai/ha, scale of 0 to 100, 0 is no effect, 100 is complete control
[22] = Preemergence, 62 g ai/ha, scale of 0 to 100, 0 is no effect, 100 is complete control
[23] = Preemergence, 125 g ai/ha, scale 0 to 100, 0 no effect, 100 complete control
[24] = Preemergence, 250 g ai/ha, scale 0 to 100, 0 no effect, 100 complete control

Cc1nn(-c2ccnc(Cl)c2)nc1Cc1ccnc(C(F)(F)F)c1 [Compound 141]
Plant response rating, Crabgrass, Large [1, 10]: 20
Plant response rating, Crabgrass, Large [1, 11]: 55
Plant response rating, Crabgrass, Large [1, 12]: 80
Plant response rating, Crabgrass, Large [1, 13]: 95
Plant response rating, Pigweed [2, 10]: 95
Plant response rating, Pigweed [2, 11]: 95
Plant response rating, Pigweed [2, 12]: 98
Plant response rating, Pigweed [2, 13]: 98
Corn plant response rating (corn (Zea mays); [14]): 30
Corn plant response rating (corn (Zea mays); [15]): 50
Plant response rating, Corn (corn (Zea mays); [16]): 0
Plant response rating, Corn (corn (Zea mays); [17]): 30
Plant response rating, Nutsedge, Yellow [3, 10]: 0
Plant response rating, Nutsedge, Yellow [3, 11]: 10
Plant response rating, Nutsedge, Yellow [3, 12]: 15
Plant response rating, Nutsedge, Yellow [3, 13]: 15
Plant response rating, Wheat [4, 18]: 20
Wheat plant response rating ([4]; Postemergence, 500 g ai/ha): 50
Plant response rating, Wheat [4, 19]: 0
Plant response rating, Wheat [4, 20]: 20
Plant response rating, Morningglory [5, 18]: 80
Morningglory plant response rating ([5]; Postemergence, 500 g ai/ha): 90
Plant response rating, Morningglory [5, 19]: 30
Plant response rating, Morningglory [5, 20]: 60
Plant response rating, Soybean (soybean (Glycine max); [10]): 40
Plant response rating, Soybean (soybean (Glycine max); [11]): 55
Plant response rating, Soybean (soybean (Glycine max); [12]): 55
Plant response rating, Soybean (soybean (Glycine max); [13]): 65
Plant response rating, Ryegrass, Italian [6, 10]: 15
Plant response rating, Ryegrass, Italian [6, 11]: 30
Plant response rating, Ryegrass, Italian [6, 12]: 50
Plant response rating, Ryegrass, Italian [6, 13]: 70
Plant response rating, Blackgrass [7, 10]: 20
Plant response rating, Blackgrass [7, 11]: 20
Plant response rating, Blackgrass [7, 12]: 35
Plant response rating, Blackgrass [7, 13]: 75
Plant response rating, Johnsongrass [8, 10]: 10
Plant response rating, Johnsongrass [8, 11]: 10
Plant response rating, Johnsongrass [8, 12]: 15
Plant response rating, Johnsongrass [8, 13]: 15
Barnyardgrass plant response rating [9, 14]: 80
Barnyardgrass plant response rating [9, 15]: 90
Plant response rating, Barnyardgrass [9, 16]: 40
Plant response rating, Barnyardgrass [9, 17]: 100

Cc1nn(-c2ccc(F)cc2F)nc1Oc1ccnc(C(F)(F)F)c1 [Compound 146]
Plant response rating, Crabgrass, Large [1, 21]: 98
Plant response rating, Crabgrass, Large [1, 22]: 100
Plant response rating, Crabgrass, Large [1, 23]: 100
Plant response rating, Crabgrass, Large [1, 24]: 100
Plant response rating, Pigweed [2, 21]: 85
Plant response rating, Pigweed [2, 22]: 90
Plant response rating, Pigweed [2, 23]: 100
Plant response rating, Pigweed [2, 24]: 100
Corn plant response rating (corn (Zea mays); [14]): 20
Corn plant response rating (corn (Zea mays); [15]): 80
Plant response rating, Corn (corn (Zea mays); [16]): 0
Plant response rating, Corn (corn (Zea mays); [17]): 10
Plant response rating, Nutsedge, Yellow [3, 21]: 0
Plant response rating, Nutsedge, Yellow [3, 22]: 0
Plant response rating, Nutsedge, Yellow [3, 24]: 10
Plant response rating, Wheat [4, 18]: 10
Wheat plant response rating ([4]; Postemergence, 500 g ai/ha): 30
Plant response rating, Wheat [4, 19]: 0
Plant response rating, Wheat [4, 20]: 30
Plant response rating, Morningglory [5, 18]: 90
Morningglory plant response rating ([5]; Postemergence, 500 g ai/ha): 90
Plant response rating, Morningglory [5, 19]: 10
Plant response rating, Morningglory [5, 20]: 60
Plant response rating, Soybean (soybean (Glycine max); [21]): 10
Plant response rating, Soybean (soybean (Glycine max); [22]): 15
Plant response rating, Soybean (soybean (Glycine max); [24]): 40
Plant response rating, Ryegrass, Italian [6, 21]: 0
Plant response rating, Ryegrass, Italian [6, 22]: 30
Plant response rating, Ryegrass, Italian [6, 23]: 55
Plant response rating, Ryegrass, Italian [6, 24]: 90
Plant response rating, Blackgrass [7, 21]: 50
Plant response rating, Blackgrass [7, 22]: 70
Plant response rating, Blackgrass [7, 23]: 90
Plant response rating, Blackgrass [7, 24]: 90
Plant response rating, Johnsongrass [8, 21]: 5
Plant response rating, Johnsongrass [8, 22]: 75
Plant response rating, Johnsongrass [8, 23]: 98
Plant response rating, Johnsongrass [8, 24]: 100
Barnyardgrass plant response rating [9, 14]: 30
Barnyardgrass plant response rating [9, 15]: 90
Plant response rating, Barnyardgrass [9, 16]: 90
Plant response rating, Barnyardgrass [9, 17]: 100
